Measured values taken from patent US20260062388A1, “POLYMORPHIC FORM OF NEPICASTAT ACID ADDITION SALT, PREPARATION METHOD THEREFOR AND USE THEREOF” (Jiangsu Yahong Meditech Co., Ltd., priority 2022, published 2026).

Experiments:
[1] = Approximate solubility test on crystal forms of hydrochloride salt of nepicastat at room temperature; format: physicochemical; settings: thermodynamic from solid, room temperature
[2] = Dynamic vapor sorption (DVS) hygroscopicity; format: physicochemical
Description: DVS curves are acquired on DVS Intrinsic from SMS (Surface Measurement Systems). • Testing temperature: 25° C. • Sample amount: 10-20 mg • dm/dt: 0.002%/min; • RH range: 0% RH-95% RH-0% RH • RH gradient: 10%

[3] = Long-term stability test (25° C./60% RH) of crystal form I; format: physicochemical; settings: for Moisture (KF, w/w %) / Related substances (w/w %): Total impurities / Chiral purity (%) / Content (HPLC, w/w %): 25° C. ± 2° C./60% RH ± 5% RH; for Chiral purity (%): S-enantiomer; for Content (HPLC, w/w %): deducting residual solvent(s) and moisture
[4] = Accelerated stability test (40° C./75% RH) of crystal form I; format: physicochemical; settings: for Moisture (KF, w/w %) / Related substances (w/w %): Total impurities / Chiral purity (%) / Content (HPLC, w/w %): 40° C. ± 2° C./75% RH ± 5% RH; for Chiral purity (%): S-enantiomer; for Content (HPLC, w/w %): deducting residual solvent(s) and moisture
[5] = Stability studies under relatively harsh conditions (40° C., 40° C./75% RH, 60° C., 60° C./75% RH) on crystal forms I and II; format: physicochemical; settings: for crystal form stability (XRPD pattern): 15 days
[6] = Bioavailability test, intravenous and oral administration to mice; settings: mouse, in vivo, IV 15 mg/kg, PO 30 mg/kg
Excerpt: The crystal forms I and II of hydrochloride salt of nepicastat and the crystal forms of other acid addition salts of nepicastat in Table 31 were taken, and administered intravenously and orally to mice respectively, wherein: • the formulation for intravenous (IV) administration was: 5% (v/v) DMSO+10% (v/v) Solutol HS 15+85% (v/v) physiological saline; • the formulation for oral (PO) administration was: 0.5% (v/v) MC4000 aqueous solution (MC: methylcellulose).
The specific administration was as follows: • Experiment: three mice were subjected to the test in parallel for each formulation; • Body weight: about 30 g • Administration route: IV; PO • Dose administered: IV-15 mg/kg; PO-30 mg/kg; • Before administration: fasting for 12 hours before administration, and allowing mice to drink water; • After administration: allowing mice to drink water, and feeding within 2 hours after administration; • Blood collecting site: the vein at a hind leg • Blood collecting times: IV—0.083, 0.25, 0.5, 1, 2, 4, 6, 8, 24 h; • PO—0.25, 0.5, 1, 2, 4, 6, 8, 24 h.
Due to very close solubilities of the crystal forms I and II of hydrochloride salt of nepicastat in water, it was found in the experiment that both of them obtained clear solutions upon preparing the administration samples.

Cl.NCc1c[nH]c(=S)n1[C@H]1CCc2c(F)cc(F)cc2C1.O [crystal form I of hydrochloride salt, (S)-5-aminomethyl-1-(5,7-difluoro-1,2,3,4-tetrahydronaphthalen-2-yl)-1,3-dihydroimidazole-2-thione hydrochloride monohydrate]
solubility ([1]; aqueous with cosolvent or surfactant or cyclodextrin, solvent 15% Isopropanol): 20000 to 27000 µg/mL | solubility ([1]; aqueous with cosolvent or surfactant or cyclodextrin, solvent 30% Methanol): 21000 to 42000 µg/mL | solubility ([1]; aqueous with cosolvent or surfactant or cyclodextrin, solvent 50% Acetonitrile): 80000 to 100000 µg/mL | solubility ([1]; aqueous with cosolvent or surfactant or cyclodextrin, solvent 50% Ethanol): 20000 to 27000 µg/mL | solubility ([1]; aqueous with cosolvent or surfactant or cyclodextrin, solvent 50% Isopropanol): 40000 to 80000 µg/mL | solubility ([1]; aqueous with cosolvent or surfactant or cyclodextrin, solvent 50% Tetrahydrofuran): 100000 to 130000 µg/mL | solubility ([1]; organic solvent or mixture, solvent 1,4-Dioxane): < 1000 µg/mL | solubility ([1]; organic solvent or mixture, solvent 2-Butanone): < 1000 µg/mL | solubility ([1]; organic solvent or mixture, solvent 2-Methyltetrahydrofuran): < 1000 µg/mL | solubility ([1]; organic solvent or mixture, solvent Acetone): < 1000 µg/mL | solubility ([1]; organic solvent or mixture, solvent Acetonitrile): 40 µg/mL | solubility ([1]; organic solvent or mixture, solvent Chloroform): 380 µg/mL | solubility ([1]; organic solvent or mixture, solvent Dichloromethane): < 10 µg/mL | solubility ([1]; organic solvent or mixture, solvent Ethanol): 6500 µg/mL | solubility ([1]; organic solvent or mixture, solvent Ethyl acetate): 10 µg/mL | solubility ([1]; organic solvent or mixture, solvent Isopropanol): 6000 µg/mL | solubility ([1]; organic solvent or mixture, solvent Methanol): 33000 µg/mL | solubility ([1]; organic solvent or mixture, solvent Methyl tert-butyl ether): < 1000 µg/mL | solubility ([1]; organic solvent or mixture, solvent N-hexane): < 10 µg/mL | solubility ([1]; organic solvent or mixture, solvent Propanol): 11700 µg/mL | solubility ([1]; organic solvent or mixture, solvent Propylene carbonate): 140 µg/mL | solubility ([1]; organic solvent or mixture, solvent Tetrahydrofuran): 90 µg/mL | solubility ([1]; solvent Purified water): 7400 µg/mL | hygroscopicity of the sample ([2]; DVS, 0% RH to 80% RH): slight hygroscopicity | weight gain by hygroscopicity ([2]; DVS, from 0% RH to 80% RH, 25° C.): about 1.036% | crystal form before and after the DVS test ([2]; XRPD before and after DVS): remained unchanged | Moisture (KF, w/w %) ([3]; 3 months): 5.7 w/w % | Related substances (w/w %): Total impurities ([3]; 3 months): not detected | Chiral purity (%) ([3]; 3 months): 99.8% | Content (HPLC, w/w %) ([3]; 3 months): 100.8 w/w % | Moisture (KF, w/w %) ([3]; 6 months): 6.0 w/w % | Related substances (w/w %): Total impurities ([3]; 6 months): not detected | Chiral purity (%) ([3]; 6 months): 99.8% | Content (HPLC, w/w %) ([3]; 6 months): 100.3 w/w % | Moisture (KF, w/w %) ([3]; 9 months): 6.3 w/w % | Related substances (w/w %): Total impurities ([3]; 9 months): not detected | Chiral purity (%) ([3]; 9 months): 99.8% | Content (HPLC, w/w %) ([3]; 9 months): 100.5 w/w % | Moisture (KF, w/w %) ([3]; 12 months): 6.2 w/w % | Related substances (w/w %): Total impurities ([3]; 12 months): not detected | Chiral purity (%) ([3]; 12 months): 99.8% | Content (HPLC, w/w %) ([3]; 12 months): 100.0 w/w % | Moisture (KF, w/w %) ([3]; Initial): 5.9 w/w % | Related substances (w/w %): Total impurities ([3]; Initial): not detected | Chiral purity (%) ([3]; Initial): 99.8% | Content (HPLC, w/w %) ([3]; Initial): 100.3 w/w % | long-term stability ([3]; 25° C./60% RH, double-layer polyethylene bag): no significant change in the detection results | Moisture (KF, w/w %) ([4]; 1 months): 5.8 w/w % | Related substances (w/w %): Total impurities ([4]; 1 months): not detected | Chiral purity (%) ([4]; 1 months): 99.8% | Content (HPLC, w/w %) ([4]; 1 months): 100.4 w/w % | Moisture (KF, w/w %) ([4]; 2 months): 5.7 w/w % | Related substances (w/w %): Total impurities ([4]; 2 months): not detected | Chiral purity (%) ([4]; 2 months): 99.8% | Content (HPLC, w/w %) ([4]; 2 months): 99.6 w/w % | Moisture (KF, w/w %) ([4]; 3 months): 5.7 w/w % | Related substances (w/w %): Total impurities ([4]; 3 months): not detected | Chiral purity (%) ([4]; 3 months): 99.8% | Content (HPLC, w/w %) ([4]; 3 months): 100.4 w/w % | Moisture (KF, w/w %) ([4]; 6 months): 5.8 w/w % | Related substances (w/w %): Total impurities ([4]; 6 months): not detected | Chiral purity (%) ([4]; 6 months): 99.8% | Content (HPLC, w/w %) ([4]; 6 months): 100.1 w/w % | Moisture (KF, w/w %) ([4]; Initial): 5.9 w/w % | Related substances (w/w %): Total impurities ([4]; Initial): not detected | Chiral purity (%) ([4]; Initial): 99.8% | Content (HPLC, w/w %) ([4]; Initial): 100.3 w/w % | accelerated stability ([4]; 40° C./75% RH, double-layer polyethylene bag): no significant change in the detection results | crystal form stability (XRPD pattern) ([5]; 60° C.): stable | crystal form stability (XRPD pattern) ([5]; 60° C./75% RH): stable | impurity produced due to degradation ([5]; solid left at 60° C. for 15 days): no significant impurity to produce due to degradation | impurity produced due to degradation ([5]; solid left at 60° C./75% RH for 15 days): no significant impurity to produce due to degradation | bioavailability [6]: > 70%
